# Laboratory results published in patent US20190071416A1, “COMPOUNDS FOR TREATMENT OF CANCER AND EPIGENETICS” (Agency For Science, Technology and Research, priority 2015, published 2019).
# Molecular target: T1, SMYD3 (Homo sapiens, UniProt Q9H7B4)
# T1 sequence (Q9H7B4 1-428): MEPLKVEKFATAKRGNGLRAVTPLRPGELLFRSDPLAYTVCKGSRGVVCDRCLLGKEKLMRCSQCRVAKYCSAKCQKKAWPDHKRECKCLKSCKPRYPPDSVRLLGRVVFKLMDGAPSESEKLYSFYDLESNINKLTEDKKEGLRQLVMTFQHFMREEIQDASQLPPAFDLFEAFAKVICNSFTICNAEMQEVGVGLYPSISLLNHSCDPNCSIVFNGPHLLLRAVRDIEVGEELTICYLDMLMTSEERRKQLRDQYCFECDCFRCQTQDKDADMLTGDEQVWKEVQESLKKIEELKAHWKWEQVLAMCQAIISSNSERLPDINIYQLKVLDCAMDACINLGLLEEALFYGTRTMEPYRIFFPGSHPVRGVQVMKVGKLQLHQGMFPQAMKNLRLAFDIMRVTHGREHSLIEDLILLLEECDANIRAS
# Assay: SMYD3 biochemical assay (MTase-Glo, MAP3K2 peptide substrate)
# Details: Table 3; MTase assay, MAP3K2 peptide substrate; read-out: IC50
# Description: A SMYD3 enzymatic assay was developed using Promega's Methyltransferase-Glo™ reagents. In the assay, SMYD3 catalyzes the methylation of the MAP3K2 peptide substrate by transferring a methyl group from SAM to MAP3K2 peptide and further converts the SAM to SAH. The SMYD3 methyltransferase activity is measured based on the amount of SAH produced from the reaction through the use of coupling enzymes that convert the SAH to ATP. The MTase-Glo detection solution then catalyzes the formation of light from ATP.
# A final concentration of 1.0 μM and 10 μM SAM and MAP3K2 peptide were added and further incubated for 30 min at room temperature before adding the MTase Glo and detection reagent. Reaction signals were detected using microplate readers on luminescent mode (Safire Tecan). The IC50 was determined by non-linear regression, using GraphPad Prism version, 5.03.
row,SMILES,IC50
1,"CCCOC(=O)N1CCN(C(=O)c2ccc3c(Cl)c4c(nc3c2)CCCC4)C(CC(=O)OC)C1 (centres unmarked) [A070, Propyl 4-(9-chloro-5,6,7,8-tetrahydroacridine-3-carbonyl)-3-(2-methoxy-2-oxoethyl)piperazine-1-carboxylate]",2600 nM
2,"CCCOC(=O)N1CCN(C(=O)c2ccc3c(Cl)c4c(nc3c2)CCCC4)C(CC(=O)NC)C1 (centres unmarked) [A072, propyl 4-(9-chloro-5,6,7,8-tetrahydroacridine-3-carbonyl)-3-(2-(methylamino)-2-oxoethyl)piperazine-1-carboxylate]",4300 nM
3,"CCCOC(=O)N1CCN(C(=O)c2ccc3c(Cl)c4c(nc3c2)CC(c2ccccn2)CC4)C[C@@H]1C (stereo partly drawn) [A073, Propyl (2S)-4-(9-chloro-6-(pyridin-2-yl)-5,6,7,8-tetrahydroacridine-3-carbonyl)-2-methylpiperazine-1-carboxylate]",150 nM
4,"CCCOC(=O)N1CCN(C(=O)c2ccc3c(Cl)c4c(nc3c2)CCC(CCN(C)C)C4)CC1 (centres unmarked) [A075, Propyl 4-(9-chloro-7-(2-(dimethylamino)ethyl)-5,6,7,8-tetrahydroacridine-3-carbonyl)piperazine-1-carboxylate]",210 nM
5,"CCCOC(=O)N1CCN(C(=O)c2ccc3c(Cl)c4c(nc3c2)CC(CCN)CC4)CC1 (centres unmarked) [A076, Propyl 4-(6-(2-aminoethyl)-9-chloro-5,6,7,8-tetrahydroacridine-3-carbonyl)piperazine-1-carboxylate]",160 nM
6,"CCCOC(=O)N1CCN(C(=O)c2ccc3c(Cl)c4c(nc3c2)CC(CC(N)=O)CC4)CC1 (centres unmarked) [A077, Propyl 4-(6-(2-amino-2-oxoethyl)-9-chloro-5,6,7,8-tetrahydroacridine-3-carbonyl)piperazine-1-carboxylate]",1200 nM
7,"CCCOC(=O)N1CCN(C(=O)c2ccc3c(Cl)c4c(nc3c2)CCC(CC#N)C4)CC1 (centres unmarked) [A078, Propyl 4-(9-chloro-7-(cyanomethyl)-5,6,7,8-tetrahydroacridine-3-carbonyl)piperazine-1-carboxylate]",280 nM
8,"CCCOC(=O)N1CCN(C(=O)c2ccc3c(Cl)c4c(nc3c2)CCC(CC(N)=O)C4)CC1 (centres unmarked) [A079, Propyl 4-(7-(2-amino-2-oxoethyl)-9-chloro-5,6,7,8-tetrahydroacridine-3-carbonyl)piperazine-1-carboxylate]",430 nM
9,"CCCOC(=O)N1CCN(C(=O)c2ccc3c(Cl)c4c(nc3c2)CCC(CCN)C4)[C@@H](C)C1 (stereo partly drawn) [A081, Propyl (3S)-4-(7-(2-aminoethyl)-9-chloro-5,6,7,8-tetrahydroacridine-3-carbonyl)-3-methylpiperazine-1-carboxylate]",150 nM

# The remaining compounds from weak to strong by IC50, led by results:
row,IC50,SMILES
1,5200 nM,"CCCOC(=O)N1CCN(C(=O)c2ccc3c(Cl)c4c(nc3c2)CCCC4)CC1CC(=O)OC (centres unmarked) [A069, Propyl 4-(9-chloro-5,6,7,8-tetrahydroacridine-3-carbonyl)-2-(2-methoxy-2-oxoethyl)piperazine-1-carboxylate]"
2,4200 nM,"CCCOC(=O)N1CCN(C(=O)c2ccc3c(Cl)c4c(nc3c2)CCCC4)C(CC(=O)N(C)C)C1 (centres unmarked) [A071, Propyl 4-(9-chloro-5,6,7,8-tetrahydroacridine-3-carbonyl)-3-(2-(dimethylamino)-2-oxoethyl)piperazine-1-carboxylate]"
3,1200 nM,"CCCOC(=O)N1CCN(C(=O)c2ccc3c(Cl)c4c(nc3c2)CCC(CN(C)C)C4)CC1 (centres unmarked) [A068, Propyl 4-(9-chloro-7-((dimethylamino)methyl)-5,6,7,8-tetrahydroacridine-3-carbonyl)piperazine-1-carboxylate]"
4,170 nM,"CCCOC(=O)N1CC2CCCC1CN2C(=O)c1ccc2c(Cl)c3c(nc2c1)CCCC3 (centres unmarked) [A080, Propyl 8-(9-chloro-5,6,7,8-tetrahydroacridine-3-carbonyl)-6,8-diazabicyclo[3.2.2]nonane-6-carboxylate]"
5,160 nM,"CCCOC(=O)N1CCN(C(=O)c2ccc3c(Cl)c4c(nc3c2)CC(CN)CC4)[C@@H](C)C1 (stereo partly drawn) [A067, Propyl (3S)-4-(6-(aminomethyl)-9-chloro-5,6,7,8-tetrahydroacridine-3-carbonyl)-3-methylpiperazine-1-carboxylate]"
